The assay has as its system FLU A (PR/8/34). Kind of assay: Flu A Neuraminidase Antiviral Assay. In kind it is cell-based.

Where two headings read alike, the source gives them in different places.

Broadly, the EC50 is the concentration at which the effect is half-maximal. `CCC1(c2ccccc2)CCCC2N(C)C(=O)c3c(O)c(=O)ccn3N21` (single isomer, unassigned) [Compound 22D, 1-ethyl-7-hydroxy-5-methyl-1-phenyl-1,2,3,4,4a,5-hexahydrodipyrido[1,2-b:2′,1′-f][1,2,4]triazine-6,8-dione] returned an EC50 of 11 nM.

`CC(C1CCC2N(C)C(=O)c3c(O)c(=O)ccn3N2C1c1ccccc1)C(F)(F)F` (single isomer, unassigned) [Compound 109A, 7-hydroxy-5-methyl-1-phenyl-2-(1,1,1-trifluoropropan-2-yl)-1,2,3,4,4a,5-hexahydrodipyrido[1,2-b:2′,1′-f][1,2,4]triazine-6,8-dione] displayed an EC50 of 803 nM.

As for `CN1C(=O)c2c(O)c(=O)ccn2N2C(c3cccc4ccccc34)CCCC12` (single isomer, unassigned) [Compound 5A, 7-hydroxy-5-methyl-1-(naphthalen-1-yl)-1,2,3,4,4a,5-hexahydrodipyrido[1,2-b:2′,1′-f][1,2,4]triazine-6,8-dione], the EC50 (MDCK, 48 h) worked out at 1530 nM. In other words, the single-digit micromolar range.

Regarding `CCCC1CCC2N(C)C(=O)c3c(O)c(=O)ccn3N2C1c1ccccc1Cl` (centres unmarked) [Compound 65B, 1-(2-chlorophenyl)-7-hydroxy-5-methyl-2-propyl-1,2,3,4,4a,5-hexahydrodipyrido[1,2-b:2′,1′-f][1,2,4]triazine-6,8-dione], the EC50 came out at 2.8 nM.

As to `CN1C(=O)c2c(O)c(=O)ccn2N2C(c3cccc(Br)c3)C(CC(F)(F)F)CCC12` (single isomer, unassigned) [Compound 83A, 1-(3-bromophenyl)-7-hydroxy-5-methyl-2-(2,2,2-trifluoroethyl)-1,2,3,4,4a,5-hexahydrodipyrido[1,2-b:2′,1′-f][1,2,4]triazine-6,8-dione], the midpoint of the response, the EC50, lay at 152 nM.

On to `CC1CC2N(C)C(=O)c3c(O)c(=O)ccn3N2C(C)(c2ccccc2)C1` (single isomer, unassigned) [Compound 43B, 7-hydroxy-1,3,5-trimethyl-1-phenyl-1,2,3,4,4a,5-hexahydrodipyrido[1,2-b:2′,1′-f][1,2,4]triazine-6,8-dione], for which the midpoint of the response, the EC50, lay at 1100 nM.

`CC1(c2ccccc2)CCCC2N(CC3CC4(CCC4)C3)C(=O)c3c(O)c(=O)ccn3N21` (single isomer, unassigned) [Compound 42B, 7-hydroxy-1-methyl-1-phenyl-5-(spiro[3.3]heptan-2-ylmethyl)-1,2,3,4,4a,5-hexahydrodipyrido[1,2-b:2′,1′-f][1,2,4]triazine-6,8-dione] yielded a 50% effective concentration (EC50) of 49.5 nM.

As for `CN1C(=O)c2c(O)c(=O)ccn2N2C(c3ccc(Cl)c(F)c3)CCCC12` (single isomer, unassigned) [Compound 3A, 1-(4-chloro-3-fluorophenyl)-7-hydroxy-5-methyl-1,2,3,4,4a,5-hexahydrodipyrido[1,2-b:2′,1′-f][1,2,4]triazine-6,8-dione], a half-maximal effect (EC50) was put at 1020 nM.

As for `O=C1c2c(O)c(=O)ccn2N2C(c3ccccc3)C(CC3(C(F)(F)F)CC3)CCC2N1CC1CC1` (single isomer, unassigned) [Compound 90B, 5-(cyclopropylmethyl)-7-hydroxy-1-phenyl-2-((1-(trifluoromethyl)cyclopropyl)methyl)-1,2,3,4,4a,5-hexahydrodipyrido[1,2-b:2′,1′-f][1,2,4]triazine-6,8-dione], the EC50 stood at 29.3 nM.

The compound `CCN1C(=O)c2c(O)c(=O)cc(COC)n2N2C(c3ccccc3)C(CC(F)(F)F)CCC12` (centres unmarked) [Compound 131D, 5-ethyl-7-hydroxy-10-(methoxymethyl)-1-phenyl-2-(2,2,2-trifluoroethyl)-1,2,3,4,4a,5-hexahydrodipyrido[1,2-b:2′,1′-f][1,2,4]triazine-6,8-dione] registered an EC50 above 810 nM.

Take `CN1C(=O)c2c(O)c(=O)ccn2N2C1CCCC2(C)c1ccccn1` (single isomer, unassigned) [Compound 30A, 7-hydroxy-1,5-dimethyl-1-(pyridin-2-yl)-1,2,3,4,4a,5-hexahydrodipyrido[1,2-b:2′,1′-f][1,2,4]triazine-6,8-dione]: the midpoint of the response, the EC50, lay at 16.6 nM.

The compound `CN1C(=O)c2c(O)c(=O)ccn2N2C1CCC(C)(C)C2(C)c1ccccc1` (single isomer, unassigned) [Compound 35B, 7-hydroxy-1,2,2,5-tetramethyl-1-phenyl-1,2,3,4,4a,5-hexahydrodipyrido[1,2-b:2′,1′-f][1,2,4]triazine-6,8-dione] registered an EC50 above 8100 nM.

`COc1ccccc1C1CCCC2N(C)C(=O)c3c(O)c(=O)ccn3N12` (single isomer, unassigned) [Compound 19B, 7-hydroxy-1-(2-methoxyphenyl)-5-methyl-1,2,3,4,4a,5-hexahydrodipyrido[1,2-b:2′,1′-f][1,2,4]triazine-6,8-dione] came in with an EC50 of 348 nM.

As for `CN1C(=O)c2c(O)c(=O)ccn2N2C(c3ccccc3)C(CCC(F)(F)F)CCC12` (single isomer, unassigned) [Compound 128A, 7-hydroxy-5-methyl-1-phenyl-2-(3,3,3-trifluoropropyl)-1,2,3,4,4a,5-hexahydrodipyrido[1,2-b:2′,1′-f][1,2,4]triazine-6,8-dione], the concentration for a half-maximal effect (EC50) turned out to be 799 nM. Against the preceding compound, the EC50 is about 2.3-fold higher.

As for `CN1C(=O)c2c(O)c(=O)ccn2N2C(c3ccccc3)C(C3(C(F)(F)F)CC3)CCC12` (single isomer, unassigned) [Compound 108B, 7-hydroxy-5-methyl-1-phenyl-2-(1-(trifluoromethyl)cyclopropyl)-1,2,3,4,4a,5-hexahydrodipyrido[1,2-b:2′,1′-f][1,2,4]triazine-6,8-dione], the EC50 stood at 9.4 nM.

Take `Cc1cccc(F)c1C1C(CC(F)(F)F)CCC2N(C)C(=O)c3c(O)c(=O)ccn3N12` (single isomer, unassigned) [Compound 77D, 1-(2-fluoro-6-methylphenyl)-7-hydroxy-5-methyl-2-(2,2,2-trifluoroethyl)-1,2,3,4,4a,5-hexahydrodipyrido[1,2-b:2′,1′-f][1,2,4]triazine-6,8-dione]: the midpoint of the response, the EC50, lay at 1.9 nM.

For `CN1C(=O)c2c(O)c(=O)ccn2N2C1CCC(=O)C2(C)c1ccccc1` (centres unmarked) [Compound 138B, 7-hydroxy-1,5-dimethyl-1-phenyl-3,4,4a,5-tetrahydrodipyrido[1,2-b:2′,1′-f][1,2,4]triazine-2,6,8(1H)-trione], the EC50 is 1720 nM.

Compound `CN1C(=O)c2c(O)c(=O)ccn2N2C(c3ccccc3F)C(CC(F)F)CCC12` (single isomer, unassigned) [Compound 113A, 2-(2,2-difluoroethyl)-1-(2-fluorophenyl)-7-hydroxy-5-methyl-1,2,3,4,4a,5-hexahydrodipyrido[1,2-b:2′,1′-f][1,2,4]triazine-6,8-dione] yielded an EC50 of 3440 nM.

In the case of `CN1C(=O)c2c(O)c(=O)ccn2N2C(c3ccccc3)C(C3CCC(F)(F)CC3)CCC12` (single isomer, unassigned) [Compound 84B, 2-(4,4-difluorocyclohexyl)-7-hydroxy-5-methyl-1-phenyl-1,2,3,4,4a,5-hexahydrodipyrido[1,2-b:2′,1′-f][1,2,4]triazine-6,8-dione], the EC50 turned out to be 42 nM.

`Cc1ccccc1C1C(CC(F)(F)F)CC(C)C2N(C)C(=O)c3c(O)c(=O)ccn3N12` (single isomer, unassigned) [Compound 79A, 7-hydroxy-4,5-dimethyl-1-(o-tolyl)-2-(2,2,2-trifluoroethyl)-1,2,3,4,4a,5-hexahydrodipyrido[1,2-b:2′,1′-f][1,2,4]triazine-6,8-dione] came in with a concentration giving a half-maximal response (EC50) of 83.8 nM.

`CCCC1CCC2N(CC)C(=O)c3c(O)c(=O)ccn3N2C1c1ccccc1F` (single isomer, unassigned) [Compound 96B, 5-ethyl-1-(2-fluorophenyl)-7-hydroxy-2-propyl-1,2,3,4,4a,5-hexahydrodipyrido[1,2-b:2′,1′-f][1,2,4]triazine-6,8-dione] showed an EC50 of 2.2 nM.

`CN1C(=O)c2c(O)c(=O)ccn2N2[C@H](c3ccccc3)[C@H](OCC(F)F)CC[C@@H]12` (single isomer, unassigned) [Compound 153A] had a concentration for a half-maximal effect (EC50) of 3060 nM.

As to `CN1C(=O)c2c(O)c(=O)ccn2N2C(c3ccccc3F)C(CC(F)(F)F)CCC12` (single isomer, unassigned) [Compound 127B, 1-(2-fluorophenyl)-7-hydroxy-5-methyl-2-(2,2,2-trifluoroethyl)-1,2,3,4,4a,5-hexahydrodipyrido[1,2-b:2′,1′-f][1,2,4]triazine-6,8-dione], a half-maximal response (EC50) required 3 nM.

On to `CN1C(=O)c2c(O)c(=O)ccn2N2[C@H](c3ccccc3)[C@@H](NC(=O)C(F)(F)F)CC[C@@H]12` [Compound 140], for which, for the setting “MDCK, 48 h”, the EC50 stood at 2400 nM.

`CCC1(c2ccccc2)CCCC2N(C)C(=O)c3c(O)c(=O)ccn3N21` (single isomer, unassigned) [Compound 22A, 1-ethyl-7-hydroxy-5-methyl-1-phenyl-1,2,3,4,4a,5-hexahydrodipyrido[1,2-b:2′,1′-f][1,2,4]triazine-6,8-dione]: the EC50 is above 8100 nM.

`CN1C(=O)c2c(OCc3ccccc3)c(=O)ccn2N2C(c3ccccc3)CCCCCC12` (centres unmarked) [Compound 58A, 4-(benzyloxy)-6-methyl-12-phenyl-6,6a,7,8,9,10,11,12-octahydropyrido[1′,2′:1,6][1,2,4]triazino[2,3-a]azocine-3,5-dione] gave an EC50 (MDCK, 48 h) above 8100 nM.

On to `O=C1c2c(O)c(=O)ccn2N2C(c3ccccc3)C(CCC(F)(F)F)CCC2N1CC1CC1` (single isomer, unassigned) [Compound 100B, 5-(cyclopropylmethyl)-7-hydroxy-1-phenyl-2-(3,3,3-trifluoropropyl)-1,2,3,4,4a,5-hexahydrodipyrido[1,2-b:2′,1′-f][1,2,4]triazine-6,8-dione], for which it took 5.4 nM to reach a half-maximal effect (EC50). This lies in the single-digit nanomolar range.

The compound `CCN1C(=O)c2c(O)c(=O)ccn2N2C(c3ccccc3)C(CC3(C(F)(F)F)CC3)CCC12` (single isomer, unassigned) [Compound 97B, 5-ethyl-7-hydroxy-1-phenyl-2-((1-(trifluoromethyl)cyclopropyl)methyl)-1,2,3,4,4a,5-hexahydrodipyrido[1,2-b:2′,1′-f][1,2,4]triazine-6,8-dione] returned an EC50 of 24.2 nM.

`CN1C(=O)c2c(O)c(=O)ccn2N2C1CCC2(C)c1ccccc1Cl` (single isomer, unassigned) [Compound 63B, 1-(2-chlorophenyl)-6-hydroxy-1,4-dimethyl-2,3,3a,4-tetrahydro-1H-pyrido[2,1-f]pyrrolo[1,2-b][1,2,4]triazine-5,7-dione] showed an EC50 of 160 nM.

The values above are taken from patent US20240018145A1, “[…]-DEPENDENT EN[…] TREATING OR […]” (priority 2020, published 2024).
